Values of other authors, collected in patent US20070148100A1 (priority 2005, published 2007).

Tests used:
5-HT1A receptor = molecular target: T1, 5-HT1A receptor (Homo sapiens, UniProt P08908)
T1 sequence (P08908 1-422): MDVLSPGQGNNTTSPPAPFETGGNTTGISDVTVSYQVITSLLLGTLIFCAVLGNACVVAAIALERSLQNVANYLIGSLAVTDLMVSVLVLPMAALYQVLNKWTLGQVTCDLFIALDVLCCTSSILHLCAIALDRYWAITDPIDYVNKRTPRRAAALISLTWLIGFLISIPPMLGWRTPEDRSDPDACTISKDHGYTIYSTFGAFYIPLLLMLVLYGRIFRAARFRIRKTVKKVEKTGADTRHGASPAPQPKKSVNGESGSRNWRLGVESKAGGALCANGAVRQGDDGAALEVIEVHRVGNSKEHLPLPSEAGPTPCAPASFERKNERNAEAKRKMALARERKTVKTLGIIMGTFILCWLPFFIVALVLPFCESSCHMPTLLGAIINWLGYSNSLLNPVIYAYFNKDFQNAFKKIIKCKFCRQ

5-HT2A receptor = 5-HT2A receptor (Homo sapiens, UniProt P28223)
[1] = tested on: alpha-adrenergic receptors
[2] = tested on: cholinergic muscarinic receptors

Sequence of 5-HT2A receptor (P28223 whole entry): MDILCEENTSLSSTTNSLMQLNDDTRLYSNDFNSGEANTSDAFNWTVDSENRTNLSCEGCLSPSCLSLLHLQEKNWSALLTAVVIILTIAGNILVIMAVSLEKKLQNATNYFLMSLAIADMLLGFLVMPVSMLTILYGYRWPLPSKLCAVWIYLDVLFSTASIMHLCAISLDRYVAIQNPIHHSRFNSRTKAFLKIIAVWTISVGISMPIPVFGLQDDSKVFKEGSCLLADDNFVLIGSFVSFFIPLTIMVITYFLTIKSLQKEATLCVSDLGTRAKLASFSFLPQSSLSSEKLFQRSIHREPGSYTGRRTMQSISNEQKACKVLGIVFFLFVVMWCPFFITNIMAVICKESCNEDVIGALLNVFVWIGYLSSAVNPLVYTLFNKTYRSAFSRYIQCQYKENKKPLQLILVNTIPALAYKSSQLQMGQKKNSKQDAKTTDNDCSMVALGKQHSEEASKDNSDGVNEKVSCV

## O=C1CCc2ccc(OCCCCN3CCN(c4cccc(Cl)c4Cl)CC3)cc2N1 [Aripiprazole, 7-[4-[4-(2,3-dichlorophenyl)-1-piperazinyl]butoxy]-3,4-dihydrocarbostyril]
5-HT1A receptor
  activity at the 5-HT1A receptor: partial agonist
5-HT2A receptor
  activity at the 5-HT2A receptor: antagonist profile
Histamine receptors
  affinity for histamine receptors: moderate affinity
[1]
  affinity for alpha-adrenergic receptors: moderate affinity
[2]
  affinity for cholinergic muscarinic receptors: no appreciable affinity
In vivo
  elimination half-life: approximately 75 hours
  kinetics (linearity): linear kinetics
Oral tablets
  bioavailability: about 90%
